Results from patent publication US9579408B2, “PET/SPECT agents for applications in biomedical imaging” (Washington University, priority 2011, dated 2017).
Like-named read-outs stand apart in the source and are kept apart here.

How the values were obtained:
[1] = rat, i.v. tail-vein, 60 min post-injection
Experimental: This Example illustrates MicroPET imaging of myocardial perfusion in a rat. In these experiments, ^68Ga-radiopharmaceutical 1B was injected intravenously into a rat tail-vein; MicroPET images were obtained 60 min. (FIG. 6) post-injection.

[2] = rats, n = 3
[3] = Quantitative biodistribution in wild-type (WT) mice; conditions: n = 3
Experimental: All bioassays were performed as described in earlier publications.

MDR1 Pgp (ABCB1) = conditions: mdr1a/1b (-/-) (dKO) mice, n = 3
[4] = NanoSPECT/CT imaging in rat; type: in vivo; conditions: i.v. tail-vein, 30 min and 250 min post-injection
Experimental: (FIG. 4) and 250 min. (FIG. 5) post-injection. The arrows indicate heart uptake.

## CC(C)Oc1cccc2c1[O][68Ga-3]1345[O]c6c(cccc6OC(C)C)C=[N+]1CC(C)(C)C[NH+]3CC[NH+]4CC(C)(C)C[N+]5=C2.[I-] (stereo not drawn) [Agent 1B, [ENBDMP-3-isopropoxy-PI-^68Ga]^+]
[1]
  MicroPET image finding: low level of signal from liver compared to the heart

## CC(C)Oc1cccc2c1[O][67Ga+][O]c1c(cccc1OC(C)C)C=NCC(C)(C)CNCCNCC(C)(C)CN=C2.[I-] [Agent 1A, [ENBDMP-3-isopropoxy-PI-^67Ga]^+]
[2]; 5 min P.I.
  Biodistribution, blood: 0.175 % ID/g
  Biodistribution, brain: 0.024 % ID/g
  Biodistribution, heart: 1.443 % ID/g
  Biodistribution, kidneys: 8.142 % ID/g
  Biodistribution, liver: 2.615 % ID/g
  Biodistribution, lung: 0.814 % ID/g
[2]; 15 min P.I.
  Biodistribution, blood: 0.041 % ID/g
  Biodistribution, brain: 0.015 % ID/g
  Biodistribution, heart: 1.306 % ID/g
  Biodistribution, kidneys: 5.168 % ID/g
  Biodistribution, liver: 0.657 % ID/g
  Biodistribution, lung: 0.626 % ID/g
[2]; 60 min P.I.
  Biodistribution, blood: 0.028 % ID/g
  Biodistribution, brain: 0.018 % ID/g
  Biodistribution, heart: 1.386 % ID/g
  Biodistribution, kidneys: 4.201 % ID/g
  Biodistribution, liver: 0.328 % ID/g
  Biodistribution, lung: 0.559 % ID/g
[2]; 120 min P.I.
  Biodistribution, blood: 0.012 % ID/g
  Biodistribution, brain: 0.016 % ID/g
  Biodistribution, heart: 1.516 % ID/g
  Biodistribution, kidneys: 3.543 % ID/g
  Biodistribution, liver: 0.203 % ID/g
  Biodistribution, lung: 0.591 % ID/g
[3]; 5 min P.I.
  Biodistribution, blood: 1.26 % ID/g
  Biodistribution, brain: 0.14 % ID/g
  Biodistribution, heart: 9.21 % ID/g
  Biodistribution, kidneys: 81.04 % ID/g
  Biodistribution, liver: 44.95 % ID/g
[3]; 15 min P.I.
  Biodistribution, blood: 0.29 % ID/g
  Biodistribution, brain: 0.12 % ID/g
  Biodistribution, heart: 8.37 % ID/g
  Biodistribution, kidneys: 83.46 % ID/g
  Biodistribution, liver: 33.80 % ID/g
[3]; 60 min P.I.
  Biodistribution, blood: 0.10 % ID/g
  Biodistribution, brain: 0.09 % ID/g
  Biodistribution, heart: 11.98 % ID/g
  Biodistribution, kidneys: 93.35 % ID/g
  Biodistribution, liver: 7.44 % ID/g
[3]; 120 min P.I.
  Biodistribution, blood: 0.07 % ID/g
  Biodistribution, brain: 0.06 % ID/g
  Biodistribution, heart: 9.81 % ID/g
  Biodistribution, kidneys: 67.91 % ID/g
  Biodistribution, liver: 2.90 % ID/g
MDR1 Pgp (ABCB1); 5 min P.I.
  Biodistribution, blood: 1.54 % ID/g
  Biodistribution, brain: 1.05 % ID/g
  Biodistribution, heart: 17.02 % ID/g
  Biodistribution, kidneys: 86.12 % ID/g
  Biodistribution, liver: 46.34 % ID/g
MDR1 Pgp (ABCB1); 15 min P.I.
  Biodistribution, blood: 0.64 % ID/g
  Biodistribution, brain: 0.65 % ID/g
  Biodistribution, heart: 10.59 % ID/g
  Biodistribution, kidneys: 84.19 % ID/g
  Biodistribution, liver: 46.45 % ID/g
MDR1 Pgp (ABCB1); 60 min P.I.
  Biodistribution, blood: 0.34 % ID/g
  Biodistribution, brain: 0.99 % ID/g
  Biodistribution, heart: 14.61 % ID/g
  Biodistribution, kidneys: 95.60 % ID/g
  Biodistribution, liver: 42.54 % ID/g
MDR1 Pgp (ABCB1); 120 min P.I.
  Biodistribution, blood: 0.19 % ID/g
  Biodistribution, brain: 0.96 % ID/g
  Biodistribution, heart: 20.29 % ID/g
  Biodistribution, kidneys: 115.23 % ID/g
  Biodistribution, liver: 29.82 % ID/g
[4]
  NanoSPECT/CT image finding: heart uptake
